Experiments:
Bovine brain tubulin = assay: Tubulin assembly assay; assay type: biochemical; settings: read-out: Inhibition tubulin assembly IC50; ± SD; purified bovine brain tubulin
A-10 cells = assay: Loss of cellular microtubules, indirect immunofluorescence; assay type: cell-based; settings: result in words
PDGFR-β = PDGFR-β (Homo sapiens, UniProt P09619); assay: Phosphotyrosine ELISA cytoblot, PDGFR-β; assay type: cell-based; settings: PDGFR-β expressing cells, versus sunitinib
Chain of PDGFR-β (P09619 33-1106): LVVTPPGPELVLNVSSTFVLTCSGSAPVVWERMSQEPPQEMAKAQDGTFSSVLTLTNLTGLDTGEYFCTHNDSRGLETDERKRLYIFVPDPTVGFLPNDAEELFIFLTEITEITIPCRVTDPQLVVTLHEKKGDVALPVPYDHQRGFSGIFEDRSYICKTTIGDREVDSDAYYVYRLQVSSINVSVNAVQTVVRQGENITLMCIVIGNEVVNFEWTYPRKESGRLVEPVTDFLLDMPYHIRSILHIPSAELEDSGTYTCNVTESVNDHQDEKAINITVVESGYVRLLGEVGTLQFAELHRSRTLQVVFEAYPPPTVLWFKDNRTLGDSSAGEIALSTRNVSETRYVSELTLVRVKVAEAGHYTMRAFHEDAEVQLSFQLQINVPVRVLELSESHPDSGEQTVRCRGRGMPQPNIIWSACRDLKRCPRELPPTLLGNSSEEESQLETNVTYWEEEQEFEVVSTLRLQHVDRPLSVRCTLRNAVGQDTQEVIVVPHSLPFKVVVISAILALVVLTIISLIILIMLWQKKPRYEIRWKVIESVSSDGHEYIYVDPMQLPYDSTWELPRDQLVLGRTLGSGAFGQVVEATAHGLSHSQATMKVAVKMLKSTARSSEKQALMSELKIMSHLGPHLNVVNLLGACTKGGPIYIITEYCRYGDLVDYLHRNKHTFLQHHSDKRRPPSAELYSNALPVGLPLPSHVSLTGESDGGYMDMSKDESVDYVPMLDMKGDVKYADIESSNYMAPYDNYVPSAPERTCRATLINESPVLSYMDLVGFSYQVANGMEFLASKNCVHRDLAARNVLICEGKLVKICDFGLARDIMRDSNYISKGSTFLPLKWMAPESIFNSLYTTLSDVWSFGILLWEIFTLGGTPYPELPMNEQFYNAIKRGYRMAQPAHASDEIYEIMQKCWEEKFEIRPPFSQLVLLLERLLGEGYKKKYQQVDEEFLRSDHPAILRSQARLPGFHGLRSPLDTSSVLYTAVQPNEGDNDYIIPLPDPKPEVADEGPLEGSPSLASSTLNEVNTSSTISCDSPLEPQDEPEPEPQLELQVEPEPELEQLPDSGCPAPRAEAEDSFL

| SMILES | IC50 (Bovine brain tubulin) [µM] | effect on cellular microtubules (A-10 cells) | fold better than sunitinib, PDGFR-β (PDGFR-β) |
| --- | --- | --- | --- |
| COc1ccc(/C=C\c2cc(OC)c(OC)c(OC)c2)cc1O [CA-4] | 1 ± 0.09 |  |  |
| COc1ccc(N(C)c2nc(C)nc3oc(C)cc23)c(OC)c1 [Compound 2, N-(2,4-dimethoxyphenyl)-N,2,6-trimethylfuro[2,3-d]pyrimidin-4-amine] |  | dose-dependent loss of cellular microtubules |  |
| COc1ccc(N(C)c2nc(C)nc3oc(C)cc23)cc1OC [Compound 3, N-(3,4-dimethoxyphenyl)-N,2,6-trimethylfuro[2,3-d]pyrimidin-4-amine] |  | dose-dependent loss of cellular microtubules |  |
| Cc1nc(N(C)c2ccc3c(c2)CCO3)c2cc(C)oc2n1 [Compound 6, N-(2,3-dihydro-1-benzofuran-5-yl)-N,2,6-trimethylfuro[2,3-d]pyrimidin-4-amine] |  | dose-dependent loss of cellular microtubules | about 4 fold |
| Cc1nc(N(C)c2ccc3occc3c2)c2cc(C)oc2n1 [Compound 7, N-1-benzofuran-5-yl-N,2,6-trimethylfuro[2,3-d]pyrimidin-4-amine] |  | dose-dependent loss of cellular microtubules | about 4 fold |
| COc1ccc2c(c1)CCN2c1nc(C)nc2oc(C)cc12 [Compound 8, 4-(5-methoxyindolin-1-yl)-2,6-dimethylfuro[2,3-d]pyrimidine] |  | no effect on cellular microtubules |  |
| COc1ccc2c(c1)CCCN2c1nc(C)nc2oc(C)cc12 [Compound 10, 4-(6-methoxy-3,4-dihydroquinolin-1(2H)-yl)-2,6-dimethylfuro[2,3-d]pyrimidine] |  | dose-dependent loss of cellular microtubules |  |
| CCOc1ccc(N(C)c2nc(C)nc3oc(C)cc23)cc1 [Compound 12, N-(4-ethoxyphenyl)-N,2,6-trimethylfuro[2,3-d]pyrimidin-4-amine] |  | dose-dependent loss of cellular microtubules |  |
